Experimental data as given in publication PMC3388044, “Probing of Exosites Leads to Novel Inhibitor Scaffolds of HCV NS3/4A Proteinase” (PLoS ONE, 2012).

Tests used:
NS3/4A V170A = test: NS3/4A activity assay, V170A mutant; format: biochemical, HCV genotype 1b, strain HC-J4; conditions: for NS3/4A V170A FC: fold change in IC50 for the mutant compared to WT; for IC50: recombinant V170A mutant, FRET peptide substrate
Text: (§1) Reagents were purchased from Sigma unless indicated otherwise. The FRET substrate Ac-DE-D(Edans)-EE-Abu-ψ-[COO]-AS-K(Dabsyl)-NH2, purified recombinant wild-type NS3/4A from HCV genotype 1b, strain HC-J4, and the mutants with the V36M, R155K, A156T, D168A and V170A resistance mutations were from AnaSpec (Fremont, CA). The NS3/4A construct represented the individual NS3 proteinase domain N-terminally fused with an NS4A co-factor and tagged with a 6xHis tag. […] Pyroglutamic acid-Arg-Thr-Lys-Arg-7-amino-4-methylcoumarin was from Peptides International (Louisville, KY). West Nile virus NS2B-NS3 proteinase (strain NY99) was expressed, purified and refolded to restore its functional activity as described earlier. The pET15b-Den2-CF40-Gly-NS3pro 185 plasmid encoding the Dengue virus type 2 NS2B-NS3 protease was a kind gift of Dr. Subhash Vasudevan (Program in Emerging Infectious Diseases, DUKE-NUS Graduate Medical School, Singapore). DV NS2B-NS3 proteinase was expressed purified and refolded to restore its functional activity as described previously, [70]. The expression of the soluble C-terminally truncated human furin construct in Sf9 insect cells (an ovarian cell line from fall armyworm Spodoptera frugiperda; Invitrogen, Carlsbad, CA) infected with the recombinant baculovirus and purification of soluble furin from the medium were described earlier. Original human hepatocarcinoma Huh7 cells were obtained from ATCC (Manassas, VA).
(§2) The NS3/4A activity assay was performed at 37°C in triplicate in wells of a 96-well plate in 0.2 ml 50 mM HEPES, pH 7.5, containing 100 mM NaCl, 10 mM DTT, 20% glycerol, the Ac-DE-D(Edans)-EE-Abu-ψ-[COO]-AS-K(Dabsyl)-NH2 substrate (10 µM) and the NS3/4A enzyme (10 nM). Reaction velocity was monitored continuously at λex = 355 nm and λem = 500 nm for 10 min using a Spectramax Gemini EM fluorescence spectrophotometer (Molecular Devices, Sunnyvale, CA) and the initial rate of reaction v was recorded for each reaction. […] Compound stock solutions (10 mM) were made in 100% DMSO. Stocks were then diluted using the assay buffer. As a result, the final DMSO concentration was always below 1% in the assay reactions.
(§3) To measure the inhibitory potency of the compounds, their increasing concentrations were pre-incubated with the individual proteinases in the corresponding buffer for 30 min at ambient temperature. At least, 7–9 different concentrations were used for each inhibitor. The residual activity of the enzymes was then measured as above. The IC50 values of the inhibitory compounds were calculated by determining the concentrations of the compounds needed to inhibit 50% of the enzyme activity against the peptide substrate. GraphPad Prism was used as fitting software.

WNV NS2B-NS3 proteinase = WNV NS2B-NS3 proteinase activity assay (cross-reactivity); format: biochemical, West Nile virus (strain NY99); conditions: pyroglutamic acid-Arg-Thr-Lys-Arg-7-amino-4-methylcoumarin substrate
Text: (§4) Reagents were purchased from Sigma unless indicated otherwise. The FRET substrate Ac-DE-D(Edans)-EE-Abu-ψ-[COO]-AS-K(Dabsyl)-NH2, purified recombinant wild-type NS3/4A from HCV genotype 1b, strain HC-J4, and the mutants with the V36M, R155K, A156T, D168A and V170A resistance mutations were from AnaSpec (Fremont, CA). The NS3/4A construct represented the individual NS3 proteinase domain N-terminally fused with an NS4A co-factor and tagged with a 6xHis tag. NS3/4A was in active form and the pre-activation by pep-4A or pep4AK was not necessary. Pyroglutamic acid-Arg-Thr-Lys-Arg-7-amino-4-methylcoumarin was from Peptides International (Louisville, KY). West Nile virus NS2B-NS3 proteinase (strain NY99) was expressed, purified and refolded to restore its functional activity as described earlier. The pET15b-Den2-CF40-Gly-NS3pro 185 plasmid encoding the Dengue virus type 2 NS2B-NS3 protease was a kind gift of Dr. Subhash Vasudevan (Program in Emerging Infectious Diseases, DUKE-NUS Graduate Medical School, Singapore). DV NS2B-NS3 proteinase was expressed purified and refolded to restore its functional activity as described previously, [70]. The expression of the soluble C-terminally truncated human furin construct in Sf9 insect cells (an ovarian cell line from fall armyworm Spodoptera frugiperda; Invitrogen, Carlsbad, CA) infected with the recombinant baculovirus and purification of soluble furin from the medium were described earlier. Original human hepatocarcinoma Huh7 cells were obtained from ATCC (Manassas, VA).
(§5) The activity of furin and both WNV and DV2 NS2B-NS3 proteinases (10 nM each) was measured in triplicate in 0.2 ml 20 mM Tris-HCl buffer, pH 8.0, containing 20% glycerol and 0.005% Brij 35 (for furin – 100 mM HEPES, pH 7.5, containing 1 mM CaCl2, 1 mM β-mercaptoethanol and 0.005% Brij 35) and pyroglutamic acid-Arg-Thr-Lys-Arg-7-amino-4-methylcoumarin (10 µM) as a substrate (λex = 360 nm; λem = 465 nm) as described earlier.
as §3

NS3/4A A156T = biological target: T1, NS3/4A A156T (Hepatitis C virus genotype 1b, UniProt O92972, A1182T); format: biochemical, HCV genotype 1b, strain HC-J4; conditions: for IC50: recombinant A156T mutant, FRET peptide substrate; for effect of A156T resistance mutation on efficacy: in contrast with boceprevir and telaprevir
T1 construct: The NS3/4A construct represented the individual NS3 proteinase domain N-terminally fused with an NS4A co-factor; 6xHis; purchased AnaSpec (Fremont, CA)
Text: as §1, §2, §3

NS3/4A D168A [1] = biological target: T2, NS3/4A D168A (Hepatitis C virus genotype 1b, UniProt O92972, D1194A); format: biochemical, HCV genotype 1b, strain HC-J4; conditions: recombinant D168A mutant, FRET peptide substrate
T2 construct: The NS3/4A construct represented the individual NS3 proteinase domain N-terminally fused with an NS4A co-factor; 6xHis; purchased AnaSpec (Fremont, CA)
Text: as §1, §2, §3

NS3/4A R155K = biological target: T3, NS3/4A R155K (Hepatitis C virus genotype 1b, UniProt O92972, R1181K); format: biochemical, HCV genotype 1b, strain HC-J4; conditions: recombinant R155K mutant, FRET peptide substrate
T3 construct: The NS3/4A construct represented the individual NS3 proteinase domain N-terminally fused with an NS4A co-factor; 6xHis; purchased AnaSpec (Fremont, CA)
Text: as §1, §2, §3

NS3/4A D168A [2] = format: biochemical, HCV genotype 1b, strain HC-J4; conditions: fold change in IC50 for the mutant compared to WT
Text: as §1, §2, §3

NS3/4A V36M = biological target: T4, NS3/4A V36M (Hepatitis C virus genotype 1b, UniProt O92972, V1062M); format: biochemical, HCV genotype 1b, strain HC-J4; conditions: recombinant V36M mutant, FRET peptide substrate
T4 construct: The NS3/4A construct represented the individual NS3 proteinase domain N-terminally fused with an NS4A co-factor; 6xHis; purchased AnaSpec (Fremont, CA)
Text: as §1, §2, §3

furin = biological target: T5, furin (Homo sapiens, UniProt P09958); test: Furin activity assay (cross-reactivity); format: biochemical; conditions: pyroglutamic acid-Arg-Thr-Lys-Arg-7-amino-4-methylcoumarin substrate
T5 construct: soluble C-terminally truncated human furin construct in Sf9 insect cells; made in house; host or cells: Sf9 insect cells (baculovirus)
Text: as §4, §5, §3

DV2 NS2B-NS3 proteinase = biological target: T6, DV2 NS2B-NS3 proteinase (Dengue virus type 2, UniProt P29990); test: DV2 NS2B-NS3 proteinase activity assay (cross-reactivity); format: biochemical; conditions: pyroglutamic acid-Arg-Thr-Lys-Arg-7-amino-4-methylcoumarin substrate
T6 construct: The pET15b-Den2-CF40-Gly-NS3pro 185 plasmid encoding the Dengue virus type 2 NS2B-NS3 protease; made in house
Text: as §4, §5, §3

Clc1ccc(Nc2nc(SCc3ccccc3)nc3n[nH]c(Cc4nc5ccccc5s4)c23)cc1 [Compound 5]
NS3/4A V170A FC (NS3/4A V170A): 16.6 | IC50 (NS3/4A V170A): 6.29 µM | IC50 (WNV NS2B-NS3 proteinase): 23.7 µM | IC50 (NS3/4A A156T): 18.6 µM | IC50 (NS3/4A D168A [1]): 12.7 µM | IC50 (NS3/4A R155K): 9.64 µM | NS3/4A D168A FC (NS3/4A D168A [2]): 33.4 | IC50 (NS3/4A V36M): 1.07 µM | IC50 (furin): > 100 µM | IC50 (DV2 NS2B-NS3 proteinase): 49.4 µM

Oc1ccccc1-c1nnc2sc3c(Cl)c4nn5c(-c6ccccc6O)nnc5sc4c(Cl)c3nn12 [Compound 4]
NS3/4A V170A FC (NS3/4A V170A): 2.2 | IC50 (NS3/4A V170A): 0.8 µM | IC50 (WNV NS2B-NS3 proteinase): 3.7 µM | IC50 (NS3/4A A156T): 6.54 µM | IC50 (NS3/4A D168A [1]): 3.35 µM | IC50 (NS3/4A R155K): 3.73 µM | NS3/4A D168A FC (NS3/4A D168A [2]): 9.3 | IC50 (NS3/4A V36M): 0.34 µM | IC50 (furin): 12.8 µM | IC50 (DV2 NS2B-NS3 proteinase): 14.3 µM

Cc1n[nH]c(=S)n1Nc1nc(SCc2ccccc2)nc2n[nH]c(Cc3nn[nH]n3)c12 [Compound 3]
NS3/4A V170A FC (NS3/4A V170A): 5.5 | IC50 (NS3/4A V170A): 1.97 µM | IC50 (WNV NS2B-NS3 proteinase): 18.2 µM | IC50 (NS3/4A A156T): 16.2 µM | IC50 (NS3/4A D168A [1]): 8.4 µM | IC50 (NS3/4A R155K): 5.53 µM | NS3/4A D168A FC (NS3/4A D168A [2]): 23.3 | IC50 (NS3/4A V36M): 1.67 µM | IC50 (furin): > 100 µM | IC50 (DV2 NS2B-NS3 proteinase): 34.5 µM

S=c1[nH]nc(Nc2nc(SCc3ccccc3)nc3n[nH]c(Cc4nn[nH]n4)c23)s1 [Compound 6]
NS3/4A V170A FC (NS3/4A V170A): 0.98 | IC50 (NS3/4A V170A): 0.93 µM | IC50 (WNV NS2B-NS3 proteinase): 12.7 µM | effect of A156T resistance mutation on efficacy (NS3/4A A156T): not affected | IC50 (NS3/4A A156T): 3.08 µM | IC50 (NS3/4A D168A [1]): 1.21 µM | IC50 (NS3/4A R155K): 2.29 µM | NS3/4A D168A FC (NS3/4A D168A [2]): 1.3 | IC50 (NS3/4A V36M): 0.99 µM | IC50 (furin): 66.8 µM | IC50 (DV2 NS2B-NS3 proteinase): 20.6 µM

COc1cc(C2C(C(=O)Nc3ccc(Cl)c(Cl)c3)=C(C)NC(C)=C2C(=O)Nc2ccc(Cl)c(Cl)c2)ccc1O [Compound 8]
NS3/4A V170A FC (NS3/4A V170A): 1.5 | IC50 (NS3/4A V170A): 2.92 µM | IC50 (WNV NS2B-NS3 proteinase): 21.8 µM | IC50 (NS3/4A A156T): 17.7 µM | IC50 (NS3/4A D168A [1]): 3.02 µM | IC50 (NS3/4A R155K): 10.9 µM | NS3/4A D168A FC (NS3/4A D168A [2]): 1.6 | IC50 (NS3/4A V36M): 1.84 µM | IC50 (furin): 27 µM | IC50 (DV2 NS2B-NS3 proteinase): 38.8 µM

S=c1[nH]n2c(COc3cc(Cl)c(OCc4nnc5sc(=S)[nH]n45)cc3Cl)nnc2s1 [Compound 7]
NS3/4A V170A FC (NS3/4A V170A): 1.2 | IC50 (NS3/4A V170A): 1.52 µM | IC50 (WNV NS2B-NS3 proteinase): 39.1 µM | effect of A156T resistance mutation on efficacy (NS3/4A A156T): not affected | IC50 (NS3/4A A156T): 1.12 µM | IC50 (NS3/4A D168A [1]): 1.28 µM | IC50 (NS3/4A R155K): 2.03 µM | NS3/4A D168A FC (NS3/4A D168A [2]): 1 | IC50 (NS3/4A V36M): 1.4 µM | IC50 (furin): > 100 µM | IC50 (DV2 NS2B-NS3 proteinase): > 100 µM

Clc1ccc(OCc2nn3c(CCc4nnc5sc(COc6ccc(Cl)cc6)nn45)nnc3s2)cc1 [Compound 2]
NS3/4A V170A FC (NS3/4A V170A): 6 | IC50 (NS3/4A V170A): 1.8 µM | IC50 (WNV NS2B-NS3 proteinase): > 100 µM | IC50 (NS3/4A A156T): 17.3 µM | IC50 (NS3/4A D168A [1]): 4.45 µM | IC50 (NS3/4A R155K): 5.84 µM | NS3/4A D168A FC (NS3/4A D168A [2]): 14.8 | IC50 (NS3/4A V36M): 1.53 µM | IC50 (furin): > 100 µM | IC50 (DV2 NS2B-NS3 proteinase): > 100 µM

O=C(Nc1ccccc1)c1cc(S(=O)(=O)Nc2nc3ncccc3[nH]2)c(SSc2cc(Cl)c(C(=O)Nc3ccccc3)cc2S(=O)(=O)Nc2nc3ncccc3[nH]2)cc1Cl [Compound 1]
NS3/4A V170A FC (NS3/4A V170A): 2.2 | IC50 (NS3/4A V170A): 0.4 µM | IC50 (WNV NS2B-NS3 proteinase): 21.9 µM | IC50 (NS3/4A A156T): 0.72 µM | IC50 (NS3/4A D168A [1]): 0.25 µM | IC50 (NS3/4A R155K): 1.75 µM | NS3/4A D168A FC (NS3/4A D168A [2]): 1.4 | IC50 (NS3/4A V36M): 0.26 µM | IC50 (furin): > 100 µM | IC50 (DV2 NS2B-NS3 proteinase): 19.7 µM
